Data: the kinase profiling compilation of Christmann-Franck et al. (2016)

Experiments:
Assay in all cases: radiometric filter-binding kinase assay, Kinase HotSpot
Details in all cases: compound 0.5 µM; ATP 10 µM
ACVRL1 (human) = ACVRL1 (human) (UniProt P37023)
CAMK2B (human) = CAMK2B (human) (UniProt Q13554)
CAMKK2 (human) = CAMKK2 (human) (UniProt Q96RR4)
CHUK (human) = CHUK (human) (UniProt O15111)
CSNK1E (human) = CSNK1E (human) (UniProt P49674)
CSNK1G1 (human) = CSNK1G1 (human) (UniProt Q9HCP0)
DAPK3 (human) = DAPK3 (human) (UniProt O43293)
EPHA2 (human) = EPHA2 (human) (UniProt P29317)
EPHB2 (human) = EPHB2 (human) (UniProt P29323)
ERBB2 (human) = ERBB2 (human) (UniProt P04626)
FER (human) = FER (human) (UniProt P16591)
GRK6 (human) = GRK6 (human) (UniProt P43250)
GSK3A (human) = GSK3A (human) (UniProt P49840)
INSRR (human) = INSRR (human) (UniProt P14616)
IRAK1 (human) = IRAK1 (human) (UniProt P51617)
[1] = system: MAP2K6 (human), P52564 [S207E/T211E]
MAP3K2 (human) = MAP3K2 (human) (UniProt Q9Y2U5)
MAP3K7 TAB1 (human) = MAP3K7 TAB1 (human) (UniProt O43318+Q15750)
MAPK13 (human) = MAPK13 (human) (UniProt O15264)
MERTK (human) = MERTK (human) (UniProt Q12866)
MLTK (human) = MLTK (human) (UniProt Q9NYL2)
MYLK2 (human) = MYLK2 (human) (UniProt Q9H1R3)
NEK1 (human) = NEK1 (human) (UniProt Q96PY6)
NLK (human) = NLK (human) (UniProt Q9UBE8)
NTRK1 (human) = NTRK1 (human) (UniProt P04629)
PAK3 (human) = PAK3 (human) (UniProt O75914)
PAK6 (human) = PAK6 (human) (UniProt Q9NQU5)
PDGFRB (human) = PDGFRB (human) (UniProt P09619)
PLK3 (human) = PLK3 (human) (UniProt Q9H4B4)
PRKCG (human) = PRKCG (human) (UniProt P05129)
PRKD2 (human) = PRKD2 (human) (UniProt Q9BZL6)
PTK2 (human) = PTK2 (human) (UniProt Q05397)
PTK2B (human) = PTK2B (human) (UniProt Q14289)
RPS6KA4 KD2 (human) = RPS6KA4 KD2 (human) (UniProt O75676)
RPS6KA6 KD1 KD2 (human) = RPS6KA6 KD1 KD2 (human) (UniProt Q9UK32)
SRPK1 (human) = SRPK1 (human) (UniProt Q96SB4)
SRPK3 (human) = SRPK3 (human) (UniProt Q9UPE1)
STK25 (human) = STK25 (human) (UniProt O00506)
STK33 (human) = STK33 (human) (UniProt Q9BYT3)
STK4 (human) = STK4 (human) (UniProt Q13043)
TSSK1B (human) = TSSK1B (human) (UniProt Q9BXA7)

CHUK (human), sequence (O15111 whole entry, looked up): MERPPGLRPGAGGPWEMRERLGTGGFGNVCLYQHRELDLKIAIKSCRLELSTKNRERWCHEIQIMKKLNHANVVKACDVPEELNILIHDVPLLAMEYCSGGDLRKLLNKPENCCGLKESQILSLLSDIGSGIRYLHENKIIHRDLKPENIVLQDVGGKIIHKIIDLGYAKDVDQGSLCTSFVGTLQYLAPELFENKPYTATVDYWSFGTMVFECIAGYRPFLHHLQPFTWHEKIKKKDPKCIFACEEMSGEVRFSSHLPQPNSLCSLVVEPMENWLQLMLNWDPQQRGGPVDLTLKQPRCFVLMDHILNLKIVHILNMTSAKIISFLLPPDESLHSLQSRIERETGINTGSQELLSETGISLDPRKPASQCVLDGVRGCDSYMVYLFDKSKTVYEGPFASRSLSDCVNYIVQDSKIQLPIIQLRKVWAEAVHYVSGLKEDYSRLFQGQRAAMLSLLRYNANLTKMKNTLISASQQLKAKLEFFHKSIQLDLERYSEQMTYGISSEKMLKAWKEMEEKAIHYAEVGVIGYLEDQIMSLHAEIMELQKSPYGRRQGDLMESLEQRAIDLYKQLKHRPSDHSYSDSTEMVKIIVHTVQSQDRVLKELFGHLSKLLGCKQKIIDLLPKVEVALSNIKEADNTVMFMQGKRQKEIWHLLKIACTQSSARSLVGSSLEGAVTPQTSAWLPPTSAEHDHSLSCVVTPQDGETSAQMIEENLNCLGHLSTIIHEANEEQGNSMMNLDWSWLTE
RPS6KA6 KD1 KD2 (human), sequence (Q9UK32 whole entry, looked up): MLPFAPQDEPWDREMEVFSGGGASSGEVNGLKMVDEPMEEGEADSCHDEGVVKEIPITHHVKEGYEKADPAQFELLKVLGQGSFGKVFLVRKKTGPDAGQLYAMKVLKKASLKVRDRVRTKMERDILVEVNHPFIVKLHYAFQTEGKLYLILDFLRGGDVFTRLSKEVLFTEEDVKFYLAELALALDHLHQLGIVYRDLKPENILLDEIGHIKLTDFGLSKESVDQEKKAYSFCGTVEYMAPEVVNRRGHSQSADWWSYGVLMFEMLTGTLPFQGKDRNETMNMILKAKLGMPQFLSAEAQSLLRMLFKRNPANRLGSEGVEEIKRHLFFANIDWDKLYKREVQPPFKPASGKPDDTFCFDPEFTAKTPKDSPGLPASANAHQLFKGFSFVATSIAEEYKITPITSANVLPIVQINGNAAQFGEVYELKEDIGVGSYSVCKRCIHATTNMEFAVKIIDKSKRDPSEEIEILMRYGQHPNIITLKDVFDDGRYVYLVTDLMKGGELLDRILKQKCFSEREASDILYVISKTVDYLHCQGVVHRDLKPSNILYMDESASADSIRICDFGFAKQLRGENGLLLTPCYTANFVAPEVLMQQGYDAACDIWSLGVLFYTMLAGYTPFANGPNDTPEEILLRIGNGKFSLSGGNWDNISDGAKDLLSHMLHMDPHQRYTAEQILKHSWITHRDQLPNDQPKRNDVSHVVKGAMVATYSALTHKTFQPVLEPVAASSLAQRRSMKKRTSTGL
IRAK1 (human), sequence (P51617 whole entry, looked up): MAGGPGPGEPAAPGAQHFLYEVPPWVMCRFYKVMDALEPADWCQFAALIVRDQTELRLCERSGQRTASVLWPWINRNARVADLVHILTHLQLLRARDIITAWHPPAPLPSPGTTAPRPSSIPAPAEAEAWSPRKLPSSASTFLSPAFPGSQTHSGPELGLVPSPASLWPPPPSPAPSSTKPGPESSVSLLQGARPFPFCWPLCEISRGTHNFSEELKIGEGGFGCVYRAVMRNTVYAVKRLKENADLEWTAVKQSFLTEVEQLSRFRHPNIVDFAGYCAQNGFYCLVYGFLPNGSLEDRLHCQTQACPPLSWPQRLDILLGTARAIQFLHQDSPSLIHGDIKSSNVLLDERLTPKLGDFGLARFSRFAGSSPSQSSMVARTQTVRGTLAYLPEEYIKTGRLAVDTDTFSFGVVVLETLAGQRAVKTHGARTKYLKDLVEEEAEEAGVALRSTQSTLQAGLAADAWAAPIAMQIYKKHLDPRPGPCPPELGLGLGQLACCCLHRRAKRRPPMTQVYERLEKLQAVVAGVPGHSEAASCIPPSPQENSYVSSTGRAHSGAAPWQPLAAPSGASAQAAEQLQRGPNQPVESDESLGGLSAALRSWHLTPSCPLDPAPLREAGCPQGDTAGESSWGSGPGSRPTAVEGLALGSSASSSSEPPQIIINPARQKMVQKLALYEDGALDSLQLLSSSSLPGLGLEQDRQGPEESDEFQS
CAMK2B (human), sequence (Q13554 whole entry, looked up): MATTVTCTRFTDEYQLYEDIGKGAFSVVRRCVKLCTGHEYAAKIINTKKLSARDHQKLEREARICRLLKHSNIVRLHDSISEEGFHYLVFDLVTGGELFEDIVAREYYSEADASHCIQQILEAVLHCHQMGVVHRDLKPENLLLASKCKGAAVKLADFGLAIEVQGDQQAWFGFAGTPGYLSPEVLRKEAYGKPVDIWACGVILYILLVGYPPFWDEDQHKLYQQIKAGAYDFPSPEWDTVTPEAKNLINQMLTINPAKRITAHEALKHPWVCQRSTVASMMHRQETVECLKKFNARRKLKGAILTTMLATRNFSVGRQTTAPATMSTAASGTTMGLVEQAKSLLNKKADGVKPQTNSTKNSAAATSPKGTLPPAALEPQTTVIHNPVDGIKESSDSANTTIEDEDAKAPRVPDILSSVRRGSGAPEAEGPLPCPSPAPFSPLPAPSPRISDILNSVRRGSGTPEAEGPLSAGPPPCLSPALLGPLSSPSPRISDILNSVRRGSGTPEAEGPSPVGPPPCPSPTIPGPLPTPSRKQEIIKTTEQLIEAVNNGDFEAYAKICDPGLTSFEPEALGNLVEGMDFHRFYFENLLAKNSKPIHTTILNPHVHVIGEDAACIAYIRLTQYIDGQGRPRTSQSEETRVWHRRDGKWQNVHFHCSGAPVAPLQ
MLTK (human), sequence (Q9NYL2 whole entry, looked up): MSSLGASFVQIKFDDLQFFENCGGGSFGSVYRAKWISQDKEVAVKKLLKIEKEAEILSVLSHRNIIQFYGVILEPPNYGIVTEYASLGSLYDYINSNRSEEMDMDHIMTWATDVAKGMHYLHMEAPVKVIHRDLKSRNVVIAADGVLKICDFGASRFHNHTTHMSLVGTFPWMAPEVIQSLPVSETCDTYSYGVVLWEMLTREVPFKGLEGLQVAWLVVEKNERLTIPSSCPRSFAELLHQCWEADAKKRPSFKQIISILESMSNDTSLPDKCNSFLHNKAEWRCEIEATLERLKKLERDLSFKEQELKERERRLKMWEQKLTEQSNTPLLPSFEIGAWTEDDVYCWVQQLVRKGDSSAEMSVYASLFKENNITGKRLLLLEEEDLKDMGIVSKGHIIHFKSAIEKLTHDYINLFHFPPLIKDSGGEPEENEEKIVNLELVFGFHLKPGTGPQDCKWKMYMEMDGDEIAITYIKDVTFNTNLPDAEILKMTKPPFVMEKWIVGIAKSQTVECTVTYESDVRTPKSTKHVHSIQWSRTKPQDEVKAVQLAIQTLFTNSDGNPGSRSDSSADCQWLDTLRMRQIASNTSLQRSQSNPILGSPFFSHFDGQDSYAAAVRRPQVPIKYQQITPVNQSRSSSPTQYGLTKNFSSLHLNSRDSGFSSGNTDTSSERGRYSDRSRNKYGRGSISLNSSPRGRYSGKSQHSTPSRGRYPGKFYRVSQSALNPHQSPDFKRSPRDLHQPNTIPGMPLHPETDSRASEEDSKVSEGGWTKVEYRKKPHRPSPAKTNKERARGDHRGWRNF
DAPK3 (human), sequence (O43293 whole entry, looked up): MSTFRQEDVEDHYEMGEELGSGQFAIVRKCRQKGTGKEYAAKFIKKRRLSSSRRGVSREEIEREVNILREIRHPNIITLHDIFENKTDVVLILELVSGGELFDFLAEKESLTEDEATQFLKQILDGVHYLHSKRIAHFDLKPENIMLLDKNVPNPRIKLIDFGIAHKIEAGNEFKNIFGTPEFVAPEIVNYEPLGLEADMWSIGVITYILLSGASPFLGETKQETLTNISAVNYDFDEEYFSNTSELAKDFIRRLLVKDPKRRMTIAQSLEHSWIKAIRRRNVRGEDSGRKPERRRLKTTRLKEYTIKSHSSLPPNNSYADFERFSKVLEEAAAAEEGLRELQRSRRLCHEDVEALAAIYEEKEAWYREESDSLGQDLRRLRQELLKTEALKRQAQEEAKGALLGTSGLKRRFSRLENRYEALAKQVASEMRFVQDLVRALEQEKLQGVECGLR
MAP3K2 (human), sequence (Q9Y2U5 whole entry, looked up): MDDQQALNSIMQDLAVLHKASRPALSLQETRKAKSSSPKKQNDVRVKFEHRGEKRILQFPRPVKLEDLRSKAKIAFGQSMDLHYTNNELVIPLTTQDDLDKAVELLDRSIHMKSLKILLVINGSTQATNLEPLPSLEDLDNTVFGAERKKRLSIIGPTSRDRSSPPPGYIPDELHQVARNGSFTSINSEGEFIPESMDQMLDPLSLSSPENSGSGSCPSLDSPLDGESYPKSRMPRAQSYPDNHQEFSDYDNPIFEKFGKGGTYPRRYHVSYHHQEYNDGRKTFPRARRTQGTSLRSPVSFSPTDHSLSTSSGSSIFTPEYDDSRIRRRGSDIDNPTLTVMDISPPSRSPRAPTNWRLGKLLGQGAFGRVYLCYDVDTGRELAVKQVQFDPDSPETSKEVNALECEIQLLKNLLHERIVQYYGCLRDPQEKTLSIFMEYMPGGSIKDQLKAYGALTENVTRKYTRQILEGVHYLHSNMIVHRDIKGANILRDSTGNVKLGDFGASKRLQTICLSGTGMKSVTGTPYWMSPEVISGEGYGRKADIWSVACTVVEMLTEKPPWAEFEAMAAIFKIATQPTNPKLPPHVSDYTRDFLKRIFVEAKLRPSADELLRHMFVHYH

For `N#Cc1c[nH]c2c[nH]/c(=N\Cc3cccnc3)cc2/c1=N\c1ccc(F)c(Cl)c1`, the residual activity (ACVRL1 (human)) was 96.9%, the residual activity (CAMK2B (human)) was 97.4% and the residual activity (CAMKK2 (human)) was 90.1%. It also gave a residual activity (CHUK (human)) of 96.3%, a residual activity (CSNK1E (human)) of 81.8% and a residual activity (CSNK1G1 (human)) of 87%. The residual activity (DAPK3 (human)) was 101%, the residual activity (EPHA2 (human)) was 102% and the residual activity (EPHB2 (human)) was 97.4%. It also gave a residual activity (ERBB2 (human)) of 91.7%, a residual activity (FER (human)) of 82.9% and a residual activity (GRK6 (human)) of 106%. For the same compound, the residual activity (GSK3A (human)) was 88.5%, the residual activity (INSRR (human)) was 97% and the residual activity (IRAK1 (human)) was 114%. For the same compound, the residual activity [1] was 115%, the residual activity (MAP3K2 (human)) was 81.2% and the residual activity (MAP3K7 TAB1 (human)) was 89.5%. For the same compound, the residual activity (MAPK13 (human)) was 101%, the residual activity (MERTK (human)) was 67.2% and the residual activity (MLTK (human)) was 106%. The residual activity (MYLK2 (human)) was 96.2%, the residual activity (NEK1 (human)) was 20.5% and the residual activity (NLK (human)) was 88%. It also gave a residual activity (NTRK1 (human)) of 96.2%, a residual activity (PAK3 (human)) of 99.2% and a residual activity (PAK6 (human)) of 104%. The residual activity (PDGFRB (human)) was 101%, the residual activity (PLK3 (human)) was 91.1% and the residual activity (PRKCG (human)) was 111%. The residual activity (PRKD2 (human)) was 99.7%, the residual activity (PTK2 (human)) was 99.6% and the residual activity (PTK2B (human)) was 100%. It also gave a residual activity (RPS6KA4 KD2 (human)) of 92%, a residual activity (RPS6KA6 KD1 KD2 (human)) of 104% and a residual activity (SRPK1 (human)) of 102%. For the same compound, the residual activity (SRPK3 (human)) was 96.4%, the residual activity (STK25 (human)) was 95.6% and the residual activity (STK33 (human)) was 87.4%. For the same compound, the residual activity (STK4 (human)) was 100% and the residual activity (TSSK1B (human)) was 84.4%.
`CO[C@@H]1[C@H](N(C)C(=O)c2ccccc2)C[C@H]2O[C@]1(C)n1c3ccccc3c3c4c(c5c6ccccc6n2c5c31)C(=O)NC4` was tested, and the residual activity (ACVRL1 (human)) was 94.3%, the residual activity (CAMK2B (human)) was 57.4% and the residual activity (CAMKK2 (human)) was 3.9%. The residual activity (CSNK1G1 (human)) was 103%, the residual activity (DAPK3 (human)) was 82.6% and the residual activity (EPHA2 (human)) was 92.3%. It also gave a residual activity (FER (human)) of 22.4%, a residual activity (INSRR (human)) of 96.2% and a residual activity (IRAK1 (human)) of 86.3%. It also gave a residual activity [1] of 91.4%, a residual activity (MAP3K2 (human)) of 30.2% and a residual activity (MAPK13 (human)) of 104%. It also gave a residual activity (MERTK (human)) of 78.7%, a residual activity (MLTK (human)) of 94.2% and a residual activity (NEK1 (human)) of 66.2%. For the same compound, the residual activity (NLK (human)) was 96.9%, the residual activity (NTRK1 (human)) was 5.85% and the residual activity (PAK6 (human)) was 96.4%. The residual activity (PDGFRB (human)) was 14.8%, the residual activity (PLK3 (human)) was 95.3% and the residual activity (PRKD2 (human)) was 62.9%. The residual activity (PTK2 (human)) was 87.4%, the residual activity (PTK2B (human)) was 58.2% and the residual activity (RPS6KA4 KD2 (human)) was 16.8%. For the same compound, the residual activity (RPS6KA6 KD1 KD2 (human)) was 1.15%, the residual activity (SRPK1 (human)) was 97.1% and the residual activity (SRPK3 (human)) was 93.3%. It also gave a residual activity (STK25 (human)) of 55%, a residual activity (STK33 (human)) of 46.4% and a residual activity (STK4 (human)) of 5.58%. For the same compound, the residual activity (TSSK1B (human)) was 8.24%.
`CS(=O)(=O)CCNCc1ccc(-c2ccc3ncnc(Nc4ccc(OCc5cccc(F)c5)c(Cl)c4)c3c2)o1` showed a residual activity (ACVRL1 (human)) of 105%, a residual activity (CAMK2B (human)) of 93.8% and a residual activity (CAMKK2 (human)) of 101%. For the same compound, the residual activity (CHUK (human)) was 99.5%, the residual activity (CSNK1E (human)) was 99.4% and the residual activity (CSNK1G1 (human)) was 105%. It also gave a residual activity (DAPK3 (human)) of 97.4%, a residual activity (EPHA2 (human)) of 99% and a residual activity (EPHB2 (human)) of 101%. The residual activity (FER (human)) was 94.6%, the residual activity (GRK6 (human)) was 101% and the residual activity (GSK3A (human)) was 105%. The residual activity (INSRR (human)) was 104%, the residual activity (IRAK1 (human)) was 98.8% and the residual activity [1] was 95.4%. The residual activity (MAP3K2 (human)) was 123%, the residual activity (MAP3K7 TAB1 (human)) was 89% and the residual activity (MAPK13 (human)) was 91.1%. For the same compound, the residual activity (MERTK (human)) was 95.4%, the residual activity (MLTK (human)) was 96.7% and the residual activity (MYLK2 (human)) was 108%. For the same compound, the residual activity (NEK1 (human)) was 71.8%, the residual activity (NLK (human)) was 108% and the residual activity (NTRK1 (human)) was 99.2%. For the same compound, the residual activity (PAK3 (human)) was 105%, the residual activity (PAK6 (human)) was 106% and the residual activity (PDGFRB (human)) was 92%. The residual activity (PLK3 (human)) was 105%, the residual activity (PRKCG (human)) was 79.3% and the residual activity (PRKD2 (human)) was 86.4%. It also gave a residual activity (PTK2 (human)) of 104%, a residual activity (PTK2B (human)) of 101% and a residual activity (RPS6KA4 KD2 (human)) of 93.4%. For the same compound, the residual activity (RPS6KA6 KD1 KD2 (human)) was 108%, the residual activity (SRPK1 (human)) was 100% and the residual activity (SRPK3 (human)) was 104%. For the same compound, the residual activity (STK25 (human)) was 102%, the residual activity (STK33 (human)) was 94.7% and the residual activity (STK4 (human)) was 99.4%. It also gave a residual activity (TSSK1B (human)) of 79%.
For `C[C@@H]1CCN(C(=O)CC#N)C[C@@H]1N(C)c1ncnc2[nH]ccc12`, the residual activity (ACVRL1 (human)) was 100%, the residual activity (CAMKK2 (human)) was 97.7% and the residual activity (CHUK (human)) was 95%. The residual activity (CSNK1E (human)) was 101%, the residual activity (CSNK1G1 (human)) was 101% and the residual activity (DAPK3 (human)) was 106%. It also gave a residual activity (EPHA2 (human)) of 95.8%, a residual activity (EPHB2 (human)) of 100% and a residual activity (ERBB2 (human)) of 109%. For the same compound, the residual activity (FER (human)) was 104%, the residual activity (GRK6 (human)) was 101% and the residual activity (GSK3A (human)) was 103%. For the same compound, the residual activity (INSRR (human)) was 97.5%, the residual activity (IRAK1 (human)) was 93.9% and the residual activity [1] was 99.4%. The residual activity (MAP3K2 (human)) was 123%, the residual activity (MAP3K7 TAB1 (human)) was 87.5% and the residual activity (MERTK (human)) was 114%. For the same compound, the residual activity (MLTK (human)) was 98.2%, the residual activity (MYLK2 (human)) was 99% and the residual activity (NEK1 (human)) was 84.6%. It also gave a residual activity (NLK (human)) of 110%, a residual activity (NTRK1 (human)) of 94.1% and a residual activity (PAK3 (human)) of 105%. It also gave a residual activity (PAK6 (human)) of 102%, a residual activity (PLK3 (human)) of 99.1% and a residual activity (PRKCG (human)) of 90.6%. It also gave a residual activity (PTK2 (human)) of 103%, a residual activity (RPS6KA4 KD2 (human)) of 105% and a residual activity (RPS6KA6 KD1 KD2 (human)) of 98.1%. The residual activity (SRPK1 (human)) was 99.8%, the residual activity (SRPK3 (human)) was 103% and the residual activity (STK25 (human)) was 97.2%. It also gave a residual activity (STK33 (human)) of 97.8%, a residual activity (STK4 (human)) of 95.5% and a residual activity (TSSK1B (human)) of 85.1%.
`Cn1c2ccccc2c2c3c(c4c5ccccc5n(CCC#N)c4c21)CNC3=O` showed a residual activity (ACVRL1 (human)) of 73.6%, a residual activity (CAMK2B (human)) of 51.3% and a residual activity (CAMKK2 (human)) of 3.88%. For the same compound, the residual activity (CHUK (human)) was 102%, the residual activity (CSNK1E (human)) was 80.4% and the residual activity (CSNK1G1 (human)) was 93.3%. For the same compound, the residual activity (DAPK3 (human)) was 93.6%, the residual activity (EPHA2 (human)) was 92.5% and the residual activity (EPHB2 (human)) was 77.7%. For the same compound, the residual activity (ERBB2 (human)) was 107%, the residual activity (FER (human)) was 5.9% and the residual activity (GRK6 (human)) was 44.4%. For the same compound, the residual activity (GSK3A (human)) was 35.6%, the residual activity (INSRR (human)) was 82.5% and the residual activity (IRAK1 (human)) was 6.43%. For the same compound, the residual activity [1] was 21.1%, the residual activity (MAP3K2 (human)) was 2.96% and the residual activity (MAP3K7 TAB1 (human)) was 25.4%. For the same compound, the residual activity (MAPK13 (human)) was 104%, the residual activity (MERTK (human)) was 59.9% and the residual activity (MLTK (human)) was 86.6%. For the same compound, the residual activity (MYLK2 (human)) was 59.6%, the residual activity (NEK1 (human)) was 62.9% and the residual activity (NLK (human)) was 57.3%. For the same compound, the residual activity (NTRK1 (human)) was 1.64%, the residual activity (PAK3 (human)) was 122% and the residual activity (PAK6 (human)) was 20.4%. It also gave a residual activity (PDGFRB (human)) of 60.6%, a residual activity (PLK3 (human)) of 88.1% and a residual activity (PRKCG (human)) of 72.1%. For the same compound, the residual activity (PRKD2 (human)) was 18.7%, the residual activity (PTK2 (human)) was 77% and the residual activity (PTK2B (human)) was 26.7%. For the same compound, the residual activity (RPS6KA4 KD2 (human)) was 29.9%, the residual activity (RPS6KA6 KD1 KD2 (human)) was 4.2% and the residual activity (SRPK1 (human)) was 98.3%. It also gave a residual activity (SRPK3 (human)) of 92.8%, a residual activity (STK25 (human)) of 83.9% and a residual activity (STK33 (human)) of 26.5%. For the same compound, the residual activity (STK4 (human)) was 3.73% and the residual activity (TSSK1B (human)) was 10.1%.
